Source: patent US10176292B2, “STING crystals and modulators” (MEMORIAL SLOAN-KETTERING CANCER CENTER, priority 2013, dated 2019)

Assays:
[1] = system: hSTING S162A (hSTING^H232 and hSTING^R232 background); type: cell-based, human; settings: DMXAA in medium, 12 h; hSTING^H232 and hSTING^R232 background
wt hSTING = molecular target: T1, wt hSTING (Homo sapiens, UniProt Q86WV6, H232R); assay: Real-time PCR in STING^Gt/Gt BMDCs transduced with wt hSTING; type: cell-based; settings: 50 μg/ml DMXAA, 3 hours
T1 construct: expressed in transfected cells; host or cells: bone marrow-derived dendritic cells of STING^Gt/Gt mice, retroviral transduction (pQCXIP-HA)
T1 sequence (Q86WV6 whole entry H232R): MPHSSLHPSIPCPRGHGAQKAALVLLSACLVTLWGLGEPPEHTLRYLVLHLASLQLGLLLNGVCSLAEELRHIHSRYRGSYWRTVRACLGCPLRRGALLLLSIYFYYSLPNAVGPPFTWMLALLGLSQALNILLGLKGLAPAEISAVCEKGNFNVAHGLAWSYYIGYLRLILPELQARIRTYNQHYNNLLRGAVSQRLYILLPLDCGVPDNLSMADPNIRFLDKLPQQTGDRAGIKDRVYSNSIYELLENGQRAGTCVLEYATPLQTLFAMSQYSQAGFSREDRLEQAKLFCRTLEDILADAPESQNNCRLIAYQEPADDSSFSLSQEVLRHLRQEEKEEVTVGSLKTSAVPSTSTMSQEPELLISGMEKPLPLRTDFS
Procedure: The protocol for generation of bone marrow-derived dendritic cells was described before (Dai et al., 2014). […] BMDCs (1×10^6 cells/well) were infected with retroviruses expressing hSTING (wt and various substitution mutants).
hSTING cDNAs were cloned into pQCXIP-HA vector. In vitro packaging system was used to generate retroviruses according to protocol (Clontech). BMDCs (1×10^6 cells/well) were seeded into 6-well plates and infected with retroviruses. […] CXCL10 protein level was determined by ELISA.

hSTING^H232/V162 = hSTING^H232/V162 (Homo sapiens, UniProt Q86WV6, S162V); assay: ITC binding, hSTING^H232/V162; settings: Protein: 0.08 mM; Ligands: 0.8 mM; 180 mM NaCl, pH 7.5; 25° C.
Chain of hSTING^H232/V162 (Q86WV6 140-379 S162V): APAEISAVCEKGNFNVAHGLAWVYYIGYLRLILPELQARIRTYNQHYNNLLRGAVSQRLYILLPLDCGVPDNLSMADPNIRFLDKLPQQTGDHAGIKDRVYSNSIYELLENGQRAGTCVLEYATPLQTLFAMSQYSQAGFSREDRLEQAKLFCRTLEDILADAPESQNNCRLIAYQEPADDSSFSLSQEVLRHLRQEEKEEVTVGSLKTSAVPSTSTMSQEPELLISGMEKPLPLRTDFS

hSTING^H232/A162 = hSTING^H232/A162 (Homo sapiens, UniProt Q86WV6, S162A); assay: ITC binding, hSTING^H232 mutant S162A; settings: DMXAA; Protein: 0.08 mM; Ligands: 0.8 mM; 180 mM NaCl, pH 7.5; 25° C.
Chain of hSTING^H232/A162 (Q86WV6 140-379 S162A): as the sequence (Q86WV6 140-379 S162V) above, with V23A counted along it

hSTING^Q266I = molecular target: T2, hSTING^Q266I (Homo sapiens, UniProt Q86WV6, H232R/Q266I); assay: IFN-β luciferase reporter, hSTING Q266I; type: cell-based; settings: 0.18 mM DMXAA, 12 hours
T2 construct: Full-length hSTING (wt and substitutions) and mSTING (wt) constructs were used for this cellular assay; expressed in transfected cells; host or cells: 293T
T2 sequence (Q86WV6 whole entry H232R/Q266I): as the sequence (Q86WV6 whole entry H232R) above, with Q266I counted along it
Procedure: (§1) Luciferase assays for DMXAA experiments were performed as described above. Briefly, 3×10^4 293T cells were reverse-transfected with STING constructs (5 ng per 96-well) and reporter constructs (50 ng pIFNβ-Gluc, 10 ng pLenti-EF1-Fluc for normalization, 35 ng pMAX-empty as stuffer, delivered with TransIT-LT1, MirusBio, Madison Wis.). […] 12 hours after stimulation with STING-ligands, cells were resuspended in passive lysis buffer and luciferase activity was determined using the respective substrates Coelenterazine and D-Luciferin (PJK, Kleinblittersdorf, Germany). Gaussia Luciferase values were then normalized to constitutive Firefly Luciferase values (resulting in Relative Light Units, RLU).

hSTING^R232/A162 = hSTING^R232/A162 (Homo sapiens, UniProt Q86WV6, H232R/S162A); assay: ITC binding, hSTING^R232/A162; settings: Protein: 0.08 mM; Ligands: 0.8 mM; 30 mM HEPES, 180 mM NaCl, pH 7.5; 25° C.
Chain of hSTING^R232/A162 (Q86WV6 140-379 S162A/H232R): as the sequence (Q86WV6 140-379 S162V) above, with V23A, H93R counted along it

[2] = system: non-small-cell lung cancer; settings: with paclitaxel and carboplatin, non-small-cell lung cancer (Lara et al. 2011); cited from earlier work
[3] = molecular target: T3, hSTING^S162A/Q266I (aa 155-341) (Homo sapiens, UniProt Q86WV6, H232R/Q266I/S162A); assay: X-ray crystal structure of DMXAA-hSTING^S162A/Q266I complex (Table 8 coordinates); settings: X-ray refinement (PHENIX) of DMXAA-hSTING^S162A/Q266I complex
T3 construct: His6-SUMO (N, cleaved yes); made in house; host or cells: E. coli BL21 (DE3) RIL, modified pRSFDuet-1 vector
T3 sequence (Q86WV6 155-341 S162A/H232R/Q266I): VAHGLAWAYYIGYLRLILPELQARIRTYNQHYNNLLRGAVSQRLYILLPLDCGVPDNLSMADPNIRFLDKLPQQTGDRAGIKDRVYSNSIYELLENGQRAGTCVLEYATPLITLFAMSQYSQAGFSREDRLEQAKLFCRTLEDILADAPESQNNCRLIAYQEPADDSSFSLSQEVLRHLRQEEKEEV
Procedure: The crystals were generated by sitting drop vapor diffusion method at 20° C., by mixing equal volume reservoir solution with the sample. The detailed conditions are listed below: DMXAA-hSTING^group2: 2 M LiCl, 10% PEG6000, 0.01 M CaCl2, 0.1 M Tris, pH 7.8; DMXAA-hSTING^G230I: 0.2 M Li2SO4, 20% PEG 3350, 0.015 mM CYMAL®-7, 0.1 M Tris, pH 8.1; DMXAA-hSTING^S162A/Q266I: 0.2 M Ca(Ac)2, 15% PEG3000, 0.01 M L-Proline, 0.1 M NaAc, pH 5.1; DMXAA-hSTING^S162A/G230I/Q266I: 0.2 M Ca(Ac)2, 15% PEG3000, 0.1 M LiCl, 0.1 M NaAc, pH 5.1. All structures were solved using PHASER, COOT, PHENIX, and REFMAC programs.
(PDB: 4F5D) as the search model. […] For the cGAMP-STING binary structures, two STING molecules in the STING dimer have equal probability to bind with either G or A moiety of the cGAMP isomers. […] We therefore assigned two conformations with 0.5 occupancy for bound cGAMP isomers.
(PDB: 4LOH) as the search model.
The model building was conducted using the program COOT (Emsley et al., 2010) and structural refinement was conducted using the program REFMAC (Murshudov et al., 1997).

hSTING^R232 = molecular target: T4, hSTING^R232 (Homo sapiens, UniProt Q86WV6, H232R); assay: IFN-β luciferase reporter, HEK293T cells with hSTING (hSTING^R232); type: cell-based; settings: DMXAA added to medium, 12 h
T4 construct: Full-length hSTING (wt and substitutions) and mSTING (wt) constructs were used for this cellular assay; expressed in transfected cells; host or cells: HEK293T
T4 sequence (Q86WV6 whole entry H232R): as the sequence (Q86WV6 whole entry H232R) above
Procedure: Luciferase expression was determined after 12 h. […] Cells were lysed in Passive Lysis Buffer.
as §1

[4] = system: hSTING^group1 (aa 140-379); assay: ITC binding, hSTING^group1; settings: isolated group1 substitutions
hSTING^R232/V162 = hSTING^R232/V162 (Homo sapiens, UniProt Q86WV6, H232R/S162V); assay: ITC binding, hSTING^R232/V162; settings: Protein: 0.08 mM; Ligands: 0.8 mM; 180 mM NaCl, pH 7.5; 25° C.
Chain of hSTING^R232/V162 (Q86WV6 140-379 S162V/H232R): as the sequence (Q86WV6 140-379 S162V) above, with H93R counted along it

IFN luciferase reporter response to DMXAA [1]: enabled recognition of DMXAA | up-regulation of IFN-β mRNA after DMXAA treatment (wt hSTING): did not induce the up-regulation | TΔS (hSTING^H232/V162): +7.84 Kcal/mol | ΔG (hSTING^H232/V162): -7.45 kcal/mol | ΔH (hSTING^H232/V162): +0.39 Kcal/mol | TΔS (hSTING^H232/A162): +7.99 Kcal/mol | ΔH (hSTING^H232/A162): +0.44 Kcal/mol | TΔS (hSTING^R232/A162): +8.65 Kcal/mol | ΔG (hSTING^R232/A162): -8.29 kcal/mol | ΔH (hSTING^R232/A162): +0.36 Kcal/mol | FREE R VALUE [3]: REMARK 3 FREE R VALUE: 0.2288 | R VALUE (WORKING SET) [3]: REMARK 3 R VALUE (WORKING SET): 0.1826 | IFN-β luciferase reporter response to DMXAA (hSTING^R232): did not | binding to DMXAA (ITC) [4]: no detectable binding | TΔS (hSTING^R232/V162): +7.93 Kcal/mol | ΔG (hSTING^R232/V162): -7.61 kcal/mol | ΔH (hSTING^R232/V162): +0.32 Kcal/mol
Compound: Cc1ccc2c(=O)c3cccc(CC(=O)O)c3oc2c1C [DMXAA, 5,6-dimethylxanthenone-4-acetic acid]
DMXAA-mediated IFN-β induction (hSTING^Q266I): conferred DMXAA sensitivity at a level similar to that observed for the S162A substitution | outcome of human phase III trials [2]: failed | RESOLUTION RANGE HIGH (ANGSTROMS) [3]: REMARK 3 RESOLUTION RANGE HIGH (ANGSTROMS): 2.420
